Assay results from US12622910B2, “Inhibitors of Bruton's tyrosine kinase and methods of their use” (Janssen Pharmaceutica NV, priority 2021, dated 2026).
Where two headings read alike, the source gives them in different places.

Assay: Phase 1 first-in-human study, plasma pharmacokinetics
Format: in vivo
Details: for Tmax / Cmax / AUC(0-t) / half-life / AUC(0-inf): plasma
Method: Safety, tolerability, PK, and BTKO were assessed for six doses of compound of Formula (III) oral solution (4, 12, 36, 100, 200, 400 mg) in participants under fasted conditions. The SAD part comprised 10 cohorts of 8 participants each (FIG. 1). In each cohort receiving compound of Formula (III) oral solution (Cohorts 1-9), 6 participants were randomized to receive compound of Formula (III) and 2 to receive placebo. All participants in Cohort 10 received compound of Formula (III) as an oral capsule. All 10 cohorts included 2 sentinel participants who were dosed ˜24 hours prior to the rest of the cohort. In cohorts receiving compound of Formula (III) oral solution, 1 sentinel participant received compound of Formula (III) and the other received placebo.
Six male escalating dose cohorts received a single oral dose of 4, 12, 36, 100, 200, 400 mg compound of Formula (III) or placebo solution under fasted conditions. Gender effects were assessed in 2 female cohorts whose participants received either a 36 or 100 mg dose of compound of Formula (III) or placebo as an oral solution under fasted conditions. Food effects were evaluated in a male cohort receiving compound of Formula (III) 100 mg or placebo as an oral solution after a high-fat breakfast.
Safety, tolerability, and PK of a solid dose formulation of compound of Formula (III) were assessed in an additional male cohort (Cohort 10) that received 3×35 mg (105 mg) of compound of Formula (III) in the fasted state. Since all the participants received the same dose of compound of Formula (III), this cohort was not blinded.
Safety, tolerability, PK, and BTKO following multiple compound of Formula (III) doses were evaluated in 3 dose escalation cohorts with a total of 18 participants (males: 9, females: 9) receiving active study drug. In each cohort, 3 males and 3 females were randomized to receive 36 mg once-daily (QD), 100 mg QD, or 200 mg QD compound of Formula (III) oral solution and 3 participants (males: 2; female: 1) to receive placebo. Two male participants in each cohort served as sentinel participants: one received compound of Formula (III) and other received placebo ˜48 hours prior to other participants in the cohort. All safety and tolerability data (through the follow-up visit), PK data (through at least 24 hours after last dose administration), and all available PD data were reviewed from each cohort before a decision was made to dose escalate.
Sample collection—For the PK assessment of compound of Formula (III), venous blood samples (2 to 4 mL each) were collected predose and at 15 min, 0.5, 1, 1.5, 2, 2.5, 3, 4, 6, 8, 12, 24, 36, 48, and 72 hours post-dose in Part 1. In Part 2, samples were collected predose and at 15 min, 0.5, 1, 1.5, 2, 2.5, 3, 4, 6, 8, 12 hours post-dose on day 1, predose and 1 hour post-dose on days 2-9, and predose and at 15 min, 0.5, 1, 1.5, 2, 2.5, 3, 4, 6, 8, 12, 24, 48, and 72 hours after the last dose on day 10. Plasma samples were analyzed to determine concentrations of compound of Formula (III) using a scientific validated, specific, and sensitive liquid chromatography-mass spectrometry (LC-MS/MS) method.
The PK analysis for the compound of Formula (III) samples was performed using a non-compartmental method with validated Phoenix® WinNonlin® (version 8.0, Certara L.P.).

[1] = 36 mg QD oral solution, fed, Day 10
[2] = 100 mg QD oral solution, fed, Day 10
[3] = 200 mg QD oral solution, fed, Day 10
[4] = female, human, po, 36 mg, single 36 mg oral solution, female fasted
[5] = female, human, po, 100 mg, single 100 mg oral solution, female fasted
[6] = male, human, po, 4 mg, single 4 mg oral solution, male fasted
[7] = male, human, po, 12 mg, single 12 mg oral solution, male fasted

C=CC(=O)N[C@H]1CCC[C@H]1NC(=O)c1sc2nccc3c2c1NC(=O)N3c1cnc(CC(C)C)cc1C (atropisomer, axis not shown) [compound of Formula (III), N-((1R,2S)-2-Acrylamidocyclopentyl)-5-(S)-(6-isobutyl-4-methylpyridin-3-yl)-4-oxo-4,5-dihydro-3H-1-thia-3,5,8-triazaacenaphthylene-2-carboxamide]
ARCmax [1]: 1.04
Cmin [1]: 0.552 ng/mL
ARCmax [2]: 0.968
Cmin [2]: 1.51 ng/mL
mean Cmax/Dose lower, capsule vs oral solution (105 mg capsule vs 100 mg solution): approximately 64%
Ae% dose (200 mg QD oral solution, fed, Day 1): 0.234
ARCmax [3]: 1.21
Ae% dose [3]: 0.234
CLR [3]: 0.186 L/h
Cmin [3]: 4.96 ng/mL
Tmax (both sexes, human, oral, Part 2, day 1, 36-200 mg QD, read-out: median tmax across doses): 1.25 to 1.77 h
Cmax (both sexes, human, po, 36 mg, 36 mg QD oral solution, fed, Day 1): 193 ng/mL
AUC(0-t) (both sexes, human, po, 36 mg, 36 mg QD oral solution, fed, Day 1, read-out: AUC0-24 h): 925 ng·h/mL
Tmax (both sexes, human, po, 36 mg, 36 mg QD oral solution, fed, Day 1, read-out: tmax, median (min-max)): 1.5 h
Cmax (both sexes, human, po, 36 mg, 36 mg QD oral solution, fed, Day 10): 199 ng/mL
AUC(0-t) (both sexes, human, po, 36 mg, 36 mg QD oral solution, fed, Day 10, read-out: AUC0-24 h): 889 ng·h/mL
half-life (both sexes, human, po, 36 mg, 36 mg QD oral solution, fed, Day 10, read-out: t1/2, dom (converted)): 90 min
half-life (both sexes, human, po, 36 mg, 36 mg QD oral solution, fed, Day 10, read-out: t1/2, λz (converted)): 294 min
Tmax (both sexes, human, po, 36 mg, 36 mg QD oral solution, fed, Day 10, read-out: tmax, median (min-max)): 2 h
Cmax (both sexes, human, po, 100 mg, 100 mg QD oral solution, fed, Day 1): 464 ng/mL
AUC(0-t) (both sexes, human, po, 100 mg, 100 mg QD oral solution, fed, Day 1, read-out: AUC0-24 h): 1820 ng·h/mL
Tmax (both sexes, human, po, 100 mg, 100 mg QD oral solution, fed, Day 1, read-out: tmax, median (min-max)): 1.25 h
Cmax (both sexes, human, po, 100 mg, 100 mg QD oral solution, fed, Day 10): 424 ng/mL
AUC(0-t) (both sexes, human, po, 100 mg, 100 mg QD oral solution, fed, Day 10, read-out: AUC0-24 h): 1690 ng·h/mL
half-life (both sexes, human, po, 100 mg, 100 mg QD oral solution, fed, Day 10, read-out: t1/2, dom (converted)): 108 min
half-life (both sexes, human, po, 100 mg, 100 mg QD oral solution, fed, Day 10, read-out: t1/2, λz (converted)): 576 min
Tmax (both sexes, human, po, 100 mg, 100 mg QD oral solution, fed, Day 10, read-out: tmax, median (min-max)): 1.53 h
Cmax (both sexes, human, po, 200 mg, 200 mg QD oral solution, fed, Day 1): 719 ng/mL
AUC(0-t) (both sexes, human, po, 200 mg, 200 mg QD oral solution, fed, Day 1, read-out: AUC0-24 h): 2560 ng·h/mL
Tmax (both sexes, human, po, 200 mg, 200 mg QD oral solution, fed, Day 1, read-out: tmax, median (min-max)): 1.77 h
Cmax (both sexes, human, po, 200 mg, 200 mg QD oral solution, fed, Day 10): 839 ng/mL
AUC(0-t) (both sexes, human, po, 200 mg, 200 mg QD oral solution, fed, Day 10, read-out: AUC0-24 h): 3160 ng·h/mL
half-life (both sexes, human, po, 200 mg, 200 mg QD oral solution, fed, Day 10, read-out: t1/2, dom (converted)): 114 min
half-life (both sexes, human, po, 200 mg, 200 mg QD oral solution, fed, Day 10, read-out: t1/2, λz (converted)): 1390 min
Tmax (both sexes, human, po, 200 mg, 200 mg QD oral solution, fed, Day 10, read-out: tmax, median (min-max)): 2 h
CL renal (both sexes, human, urine and plasma, 200 mg QD oral solution, fed, Day 1): 3.1 mL/min
AUC(0-inf) [4]: 22.7 ng·h/mL
Cmax [4]: 233 ng/mL
AUC(0-t) (female, human, po, 36 mg, single 36 mg oral solution, female fasted, read-out: AUC0-24 h): 819 ng·h/mL
AUC(0-t) (female, human, po, 36 mg, single 36 mg oral solution, female fasted, read-out: AUClast): 816 ng·h/mL
half-life (female, human, po, 36 mg, single 36 mg oral solution, female fasted, read-out: t1/2, dom (converted)): 96 min
half-life (female, human, po, 36 mg, single 36 mg oral solution, female fasted, read-out: t1/2, λz (converted)): 114 min
Tmax (female, human, po, 36 mg, single 36 mg oral solution, female fasted, read-out: tmax, median (min-max)): 1 h
AUC(0-inf) [5]: 1340 ng·h/mL
Cmax [5]: 650 ng/mL
AUC(0-t) (female, human, po, 100 mg, single 100 mg oral solution, female fasted, read-out: AUC0-24 h): 1420 ng·h/mL
AUC(0-t) (female, human, po, 100 mg, single 100 mg oral solution, female fasted, read-out: AUClast): 1460 ng·h/mL
half-life (female, human, po, 100 mg, single 100 mg oral solution, female fasted, read-out: t1/2, dom (converted)): 96 min
half-life (female, human, po, 100 mg, single 100 mg oral solution, female fasted, read-out: t1/2, λz (converted)): 696 min
Tmax (female, human, po, 100 mg, single 100 mg oral solution, female fasted, read-out: tmax, median (min-max)): 0.5 h
AUC(0-inf) [6]: 155 ng·h/mL
Cmax [6]: 43.5 ng/mL
AUC(0-t) (male, human, po, 4 mg, single 4 mg oral solution, male fasted, read-out: AUC0-24 h): 157 ng·h/mL
AUC(0-t) (male, human, po, 4 mg, single 4 mg oral solution, male fasted, read-out: AUClast): 154 ng·h/mL
half-life (male, human, po, 4 mg, single 4 mg oral solution, male fasted, read-out: t1/2, dom (converted)): 96 min
half-life (male, human, po, 4 mg, single 4 mg oral solution, male fasted, read-out: t1/2, λz (converted)): 96 min
Tmax (male, human, po, 4 mg, single 4 mg oral solution, male fasted, read-out: tmax, median (min-max)): 1 h
AUC(0-inf) [7]: 317 ng·h/mL
Cmax [7]: 88 ng/mL
AUC(0-t) (male, human, po, 12 mg, single 12 mg oral solution, male fasted, read-out: AUC0-24 h): 319 ng·h/mL
AUC(0-t) (male, human, po, 12 mg, single 12 mg oral solution, male fasted, read-out: AUClast): 316 ng·h/mL
half-life (male, human, po, 12 mg, single 12 mg oral solution, male fasted, read-out: t1/2, dom (converted)): 90 min
